In patent publication US9632088B2, “Methods and compositions for gamma-secretase assay” (MEMORIAL SLOAN-KETTERING CANCER CENTER, priority 2010, dated 2017):

Molecular target: T1, γ-secretase (Homo sapiens, UniProt P49768)
T1 construct: endogenous in cells; host or cells: HEK293 cells transiently transfected with myc-tagged N1-ΔE (substrate only)
Assay: Cell-based Notch cleavage assay, western blot with SM320, HEK293 cells transfected with N1-ΔE
Conditions: 1 μM inhibitor, 48 hours
Method: HEK293 cells were seeded in a 24-well plate and transfected with either truncated Notch1-ΔE construct (N1-ΔE) (gift from Dr. Raphael Kopan, Washington University School of Medicine, St. Louis, Mo.; (see Supplemental FIG. 1A of van Tetering et al., 2009, J. Biol. Chem., 284:31018-31027, for a diagram of N1-ΔE)) including cmyc (24), or empty pcDNA3.1 (−) (Invitrogen), using Fugene 6 transfection reagents (Roche). N1-ΔE includes the replete intracellular sequence, the transmembrane domain, and a truncated extracellular portion lacking LNR and the EGF repeat sequences (see Supplemental FIG. 1A of van Tetering et al., 2009, J. Biol. Chem., 284:31018-31027). […] The proteins were transferred to PVDF membrane (Millipore) using a semi-dry transfer emit (Bio-Rad) and analyzed by western blot with anti-myc antibody (prepared at Memorial Sloan-Kettering Cancer Center) and SM320 antibody.
HEK 293 cells were transiently transfected with truncated Notch1-ΔE construct including cmyc (N1-ΔE), a substrate of γ-secretase that is independent of ligand activation, as described in Experimental Methods. […] Cell lysates were analyzed by performing SDS-PAGE and immunoblotting the result with anti-myc and SM320 antibody (FIG. 6A). […] N1-ΔE was detected only in cells transfected with this construct (FIG. 6A, upper panel, lanes 1 and 2) but not in the mock transfected cells (FIG. 6A, upper panel, lane 3).

For `CC(NC(=O)Cc1cc(F)cc(F)c1)C(=O)NC1N=C(c2ccccc2)c2ccccc2N(C)C1=O` (stereo not shown) [Compound E], the “detection of cleaved NICD band by SM320 (western blot)” value was “not in the Compound E-treated cells”.
